Test results published in patent US20150299143A1, “SUBSTITUTED TRIAZOLE AND IMIDAZOLE COMPOUNDS” (HOFFMANN-LA ROCHE INC., priority 2012, published 2015).
Read-outs that look alike come from different tables or passages of the source.

Tests used:
[1] = molecular target: T1, β 5i (chymotrypsin-like activity) (Homo sapiens, UniProt P20618+P28062); experiment: Cell-Based Proteasome subunit activity/selectivity assay, β5i, substrate (ANW)2Rh110; settings: Ramos cells; substrate (ANW)2Rh110 (β5i); highest concentration tested 20 μM; read-out: Ic50:ramos:ac-(anw)2-r110
T1 construct: protease activity associated with the proteasome complex in cultured cells; endogenous in cells; host or cells: Ramos cells
Procedure, shortened: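 Cell-based fluorogenic assay measuring chymotrypsin-like β5i proteasome activity using the substrate (ANW)2Rh110. Cultured cells received 0.5 μl of 100× 4-fold serial diluted compounds or DMSO per well, were incubated 30 minutes at 37° C, then equilibrated 15 minutes at room temperature. After shaking one minute @ 700 rpm and 120 min room-temperature incubation, fluorescence was read at 500 nm excitation/519 nm emission on an Envision reader.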

[2] = molecular target: T2, β5c (chymotrypsin-like activity) (Homo sapiens, UniProt P20618+P28074); experiment: Cell-Based Proteasome subunit activity/selectivity assay, β5c, substrate (WLA)2Rh110
T2 construct: protease activity associated with the proteasome complex in cultured cells; endogenous in cells; host or cells: Ramos cells
Procedure, shortened: (§1)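 Subunit activity in cultured cells read with subunit-selective fluorogenic Rh110 substrates: (LLE)2 for β1c, (PAL)2 for β1i, (KQL)2 for β2c/2i, (WLA)2 for β5c. Cells exposed to 4-fold serially diluted compound (top 20 μM) 30 min at 37 °C, then substrate 120 min at room temperature; fluorescence 500/519 nm.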

β 2c/2i (trypsin-like) = experiment: Cell-Based Proteasome subunit activity/selectivity assay, β2c/2i, substrate (KQL)2Rh110; settings: Ramos cells; substrate (KQL)2Rh110 (β2c/2i); highest concentration tested 20 μM
Procedure, shortened: as §1

β 1c (caspase-like) = molecular target: T3, β 1c (caspase-like) (Homo sapiens, UniProt P28072+Q99436); experiment: Cell-Based Proteasome subunit activity/selectivity assay, β1c, substrate (LLE)2Rh110
T3 construct: protease activity associated with the proteasome complex in cultured cells; endogenous in cells; host or cells: Ramos cells
Procedure, shortened: as §1

β 1i (caspase-like) = molecular target: T4, β 1i (caspase-like) (Homo sapiens, UniProt P28065+P40306); experiment: Cell-Based Proteasome subunit activity/selectivity assay, β1i, substrate (PAL)2Rh110
T4 construct: protease activity associated with the proteasome complex in cultured cells; endogenous in cells; host or cells: Ramos cells
Procedure, shortened: as §1

[3] = Ramos cells, substrate (WLA)2Rh110 (β5c), highest concentration tested 20 μM, read-out: Ic50:ramos:rh110-(wla)2
[4] = Ramos cells, substrate (LLE)2Rh110 (β1c), highest concentration tested 20 μM, read-out: Ic50:ramos:rh110-(lle)2
[5] = Ramos cells, substrate (PAL)2Rh110 (β1i), highest concentration tested 20 μM, read-out: Ic50:ramos:rh110-(pal)2

| SMILES | IC50 [1] | IC50 [2, 3] | IC50 (β 2c/2i (trypsin-like)) | IC50 (β 1c (caspase-like); [4]) | IC50 (β 1i (caspase-like); [5]) | IC50 [2] | IC50 (β 1c (caspase-like)) | IC50 (β 1i (caspase-like)) |
| --- | --- | --- | --- | --- | --- | --- | --- | --- |
| COc1ccc(C(=O)NCCn2cc(C(=O)NCc3ccc(C)c(C)c3)nn2)c(OC)c1OC [Example 4, 1-[2-(2,3,4-Trimethoxy-benzoylamino)-ethyl]-1H-[1,2,3]triazole-4-carboxylic acid 3,4-dimethyl-benzylamide] | 4110 nM | ≥ 20 µM | ≥ 20 µM | ≥ 20 µM | ≥ 20 µM | – | – | – |
| CCc1ccc(C(C#N)NC(=O)c2cn(CCNC(=O)c3ccccc3OC(F)(F)F)nn2)cc1 (stereo not drawn) [Example 24, 1-[2-(2-Trifluoromethoxy-benzoylamino)-ethyl]-1H-[1,2,3]triazole-4-carboxylic acid [cyano-(4-ethyl-phenyl)-methyl]-amide] | 779 nM | ≥ 20 µM | ≥ 20 µM | ≥ 20 µM | ≥ 20 µM | – | – | – |
| CCc1ccc(C(C#N)NC(=O)c2cn(CCN3Cc4ccccc4C3=O)nn2)cc1 (stereo not drawn) [Example 46, 1-[2-(1-Oxo-1,3-dihydro-isoindol-2-yl)-ethyl]-1H-[1,2,3]triazole-4-carboxylic acid [cyano-(4-ethyl-phenyl)-methyl]-amide] | 5940 nM | 16.1 µM | ≥ 20 µM | ≥ 20 µM | ≥ 20 µM | – | – | – |
| CCc1ccc(C(C#N)NC(=O)c2cn(CCNC(=O)c3ccc(OC)nc3OC)nn2)cc1 (stereo not drawn) [Example 35, N-[2-(4-{[Cyano-(4-ethyl-phenyl)-methyl]-carbamoyl}-[1,2,3]triazol-1-yl)-ethyl]-2,6-dimethoxy-nicotinamide] | 491 nM | 5.49 µM | ≥ 20 µM | ≥ 20 µM | ≥ 20 µM | – | – | – |
| COc1ccc(C(=O)NCCn2cc(C(=O)NC(C#N)c3ccc(Br)cc3)nn2)c(OC)c1OC (stereo not drawn) [Example 54, 1-[2-(2,3,4-Trimethoxy-benzoylamino)-ethyl]-1H-[1,2,3]triazole-4-carboxylic acid [(4-bromo-phenyl)-cyano-methyl]-amide] | 101 nM | ≥ 20 µM | ≥ 20 µM | ≥ 20 µM | ≥ 20 µM | – | – | – |
| CCc1ccc(C(C#N)NC(=O)c2cn(CCNC(=O)c3cccc(OC)n3)nn2)cc1 (stereo not drawn) [Example 26, 6-Methoxy-pyridine-2-carboxylic acid [2-(4-{[cyano-(4-ethyl-phenyl)-methyl]-carbamoyl}-[1,2,3]triazol-1-yl)-ethyl]-amide] | 5380 nM | ≥ 20 µM | ≥ 20 µM | ≥ 20 µM | ≥ 20 µM | – | – | – |
| CCc1ccc(C(C#N)NC(=O)c2cn(CCNC(=O)c3cncc(Br)c3OC)nn2)cc1 (stereo not drawn) [Example 30, 5-Bromo-N-[2-(4-{[cyano-(4-ethyl-phenyl)-methyl]-carbamoyl}-[1,2,3]triazol-1-yl)-ethyl]-4-methoxy-nicotinamide] | 1020 nM | 6.78 µM | ≥ 20 µM | 17 µM | ≥ 20 µM | – | – | – |
| N#CC(NC(=O)c1cn(CCNC(=O)c2ccc(C(F)(F)F)cc2F)nn1)c1ccc(C(F)(F)F)cc1 (stereo not drawn) [Example 73, 1-[2-(2-Fluoro-4-trifluoromethyl-benzoylamino)-ethyl]-1H-[1,2,3]triazole-4-carboxylic acid [cyano-(4-trifluoromethyl-phenyl)-methyl]-amide] | 184 nM | ≥ 20 µM | ≥ 20 µM | ≥ 20 µM | ≥ 20 µM | – | – | – |
| COc1ccc(C(=O)NCCn2cc(C(=O)N[C@@H](CCc3ccccc3)C(=O)O)nn2)c(OC)c1OC [Example 83, (S)-4-Phenyl-2-({1-[2-(2,3,4-trimethoxy-benzoylamino)-ethyl]-1H-[1,2,3]triazole-4-carbonyl}-amino)-butyric acid] | 921 nM | – | ≥ 20 µM | – | – | 8.36 µM | ≥ 20 µM | ≥ 20 µM |
| CCc1ccc(C(C#N)NC(=O)c2cn(CCNC(=O)c3ccc(C)nc3OC)nn2)cc1 (stereo not drawn) [Example 34, N-[2-(4-{[Cyano-(4-ethyl-phenyl)-methyl]-carbamoyl}-[1,2,3]triazol-1-yl)-ethyl]-2-methoxy-6-methyl-nicotinamide] | 259 nM | ≥ 20 µM | ≥ 20 µM | ≥ 20 µM | ≥ 20 µM | – | – | – |
| CCc1ccc(C(C#N)NC(=O)c2cn(CCNC(=O)c3ccc(C(F)(F)F)cc3F)nn2)cc1 (stereo not drawn) [Example 38, 1-[2-(2-Fluoro-4-trifluoromethyl-benzoylamino)-ethyl]-1H-[1,2,3]triazole-4-carboxylic acid [cyano-(4-ethyl-phenyl)-methyl]-amide] | 17 nM | ≥ 20 µM | ≥ 20 µM | ≥ 20 µM | ≥ 20 µM | – | – | – |

The remaining compounds from weak to strong by IC50 [1], led by results:

| IC50 [1] | IC50 [2, 3] | IC50 (β 2c/2i (trypsin-like)) | IC50 (β 1c (caspase-like); [4]) | IC50 (β 1i (caspase-like); [5]) | IC50 [2] | IC50 (β 1c (caspase-like)) | IC50 (β 1i (caspase-like)) | SMILES |
| --- | --- | --- | --- | --- | --- | --- | --- | --- |
| 3150 nM | ≥ 20 µM | ≥ 20 µM | ≥ 20 µM | ≥ 20 µM | – | – | – | CCc1ccc(C(C#N)NC(=O)c2cn(CCNC(=O)c3cc(S(C)(=O)=O)ccc3OC)nn2)cc1 (stereo not drawn) [Example 42, 1-[2-(5-Methanesulfonyl-2-methoxy-benzoylamino)-ethyl]-1H-[1,2,3]triazole-4-carboxylic acid [cyano-(4-ethyl-phenyl)-methyl]-amide] |
| 1500 nM | 7.76 µM | ≥ 20 µM | 19.9 µM | ≥ 20 µM | – | – | – | CCc1ccc(C(C#N)NC(=O)c2cn(CCNC(=O)c3cccc(-c4ccccc4)n3)nn2)cc1 (stereo not drawn) [Example 15, 6-Phenyl-pyridine-2-carboxylic acid [2-(4-{[cyano-(4-ethyl-phenyl)-methyl]-carbamoyl}-[1,2,3]triazol-1-yl)-ethyl]-amide] |
| 1430 nM | 6.21 µM | ≥ 20 µM | ≥ 20 µM | ≥ 20 µM | – | – | – | CCc1ccc(C(C#N)NC(=O)c2cn(CCNC(=O)c3ccc(Oc4ccc(Cl)cc4)cn3)nn2)cc1 (stereo not drawn) [Example 43, 5-(4-Chloro-phenoxy)-pyridine-2-carboxylic acid [2-(4-{[cyano-(4-ethyl-phenyl)-methyl]-carbamoyl}-[1,2,3]triazol-1-yl)-ethyl]-amide] |
| 886 nM | ≥ 20 µM | ≥ 20 µM | ≥ 20 µM | ≥ 20 µM | – | – | – | COc1ccc(C(=O)NCCn2cc(C(=O)NC(C#N)c3ccc(OC(F)(F)F)cc3)nn2)c(OC)c1OC (stereo not drawn) [Example 10, 1-[2-(2,3,4-Trimethoxy-benzoylamino)-ethyl]-1H-[1,2,3]triazole-4-carboxylic acid [cyano-(4-trifluoromethoxy-phenyl)-methyl]-amide] |
| 445 nM | 10.8 µM | ≥ 20 µM | ≥ 20 µM | ≥ 20 µM | – | – | – | CC1=C(C(=O)NCCn2cc(C(=O)NC(C#N)c3ccc(C(F)(F)F)cc3)nn2)Cc2ccccc21 (stereo not drawn) [Example 70, 1-{2-[(3-Methyl-1H-indene-2-carbonyl)-amino]-ethyl}-1H-[1,2,3]triazole-4-carboxylic acid [cyano-(4-trifluoromethyl-phenyl)-methyl]-amide] |
| 190 nM | ≥ 20 µM | ≥ 20 µM | ≥ 20 µM | ≥ 20 µM | – | – | – | CCc1ccc(C(C#N)NC(=O)c2cn(CCNC(=O)c3cc(Cl)ccc3Cl)nn2)cc1 (stereo not drawn) [Example 14, 1-[2-(2,5-Dichloro-benzoylamino)-ethyl]-1H-[1,2,3]triazole-4-carboxylic acid [cyano-(4-ethyl-phenyl)-methyl]-amide] |
| 127 nM | 8.31 µM | ≥ 20 µM | 9.68 µM | 10.1 µM | – | – | – | CCCc1ccc(C(C#N)NC(=O)c2cn(CCNC(=O)c3ccc(OC)c(OC)c3OC)nn2)cc1 (stereo not drawn) [Example 64, 1-[2-(2,3,4-Trimethoxy-benzoylamino)-ethyl]-1H-[1,2,3]triazole-4-carboxylic acid [cyano-(4-propyl-phenyl)-methyl]-amide] |
| 71 nM | ≥ 20 µM | ≥ 20 µM | ≥ 20 µM | ≥ 20 µM | – | – | – | CCc1ccc(C(C#N)NC(=O)c2cn(CCNC(=O)c3cc(C(F)(F)F)ccc3F)nn2)cc1 (stereo not drawn) [Example 37, 1-[2-(2-Fluoro-5-trifluoromethyl-benzoylamino)-ethyl]-1H-[1,2,3]triazole-4-carboxylic acid [cyano-(4-ethyl-phenyl)-methyl]-amide] |
| 54 nM | ≥ 20 µM | ≥ 20 µM | ≥ 20 µM | ≥ 20 µM | – | – | – | CCc1ccc(C(C#N)NC(=O)c2nc(CCNC(=O)c3ccc(OC)c(OC)c3OC)n[nH]2)cc1 (stereo not drawn) [Example 89, 5-[2-(2,3,4-Trimethoxy-benzoylamino)-ethyl]-2H-[1,2,4]triazole-3-carboxylic acid [cyano-(4-ethyl-phenyl)-methyl]-amide] |
| 28 nM | 16.2 µM | ≥ 20 µM | ≥ 20 µM | ≥ 20 µM | – | – | – | CCc1ccc(C(C#N)NC(=O)c2cn(CCNC(=O)c3ccc(C(F)(F)F)cc3OC)nn2)cc1 (stereo not drawn) [Example 23, 1-[2-(2-Methoxy-4-trifluoromethyl-benzoylamino)-ethyl]-1H-[1,2,3]triazole-4-carboxylic acid [cyano-(4-ethyl-phenyl)-methyl]-amide] |
